Calls of active or inactive are those of the source. The calls are words filed in the database; no cut-off is given here.
Assays:
Type in all cases: functional, organism-based
Mus musculus [1] = experiment: Sedative-hypnotic activity in mouse assessed as reduction in grip strength score at 50 mg/kg, ip administrated as single dose and measured after 30 mins by grip strength test
Mus musculus [2] = experiment: Sedative-hypnotic activity in mouse assessed as decrease in number of square crossing at 50 mg/kg, ip administrated as single dose and measured after 30 mins by open field test
Mus musculus [3] = experiment: Sedative-hypnotic activity in mouse assessed as increase in latency time of first step out of center square at 5 mg/kg, ip administrated as single dose and measured after 30 mins by open field test

For `CCn1c2ccccc2c2cc(Nc3ccnc(Nc4ccc(C(F)(F)F)cc4)n3)ccc21`, the Activity (Mus musculus [1]) was “Active” and the Activity (Mus musculus [2]) was “Active”.
`CCn1c2ccccc2c2cc(Nc3ccnc(Nc4ccc5[nH]c(C)cc5c4F)n3)ccc21` was tested, and the Activity (Mus musculus [1]) was “Active” and the Activity (Mus musculus [2]) was “Active”.
With `COc1cc(Nc2nccc(Nc3ccc4sc(C)nc4c3)n2)ccc1O` the Activity (Mus musculus [1]) was “Active” and the Activity (Mus musculus [2]) was “Active”.
In the case of `Cc1nc2cc(Nc3ccnc(Nc4ccc5sc(C)nc5c4)n3)ccc2s1`, the Activity (Mus musculus [1]) is reported as “Active” and the Activity (Mus musculus [2]) is reported as “Active”.
In the case of `CCn1c2ccccc2c2cc(Nc3ccnc(Nc4ccc5sc(C)nc5c4)n3)ccc21`, the Activity (Mus musculus [1]) is reported as “Active” and the Activity (Mus musculus [2]) is reported as “Active”.
In the case of `CCn1c2ccccc2c2cc(Nc3ccnc(Nc4ccc5c(c4)c4ccccc4n5CC)n3)ccc21`, the Activity (Mus musculus [1]) is reported as “Active” and the Activity (Mus musculus [2]) is reported as “Active”.
`CCc1ccc(Nc2nccc(Nc3ccc4c(c3)c3ccccc3n4CC)n2)cc1` was tested, and the Activity (Mus musculus [1]) was “Active” and the Activity (Mus musculus [2]) was “Active”.
In the case of `CCn1cc(Nc2nccc(Nc3ccc4c(c3)c3ccccc3n4CC)n2)cn1`, the Activity (Mus musculus [1]) is reported as “Active” and the Activity (Mus musculus [2]) is reported as “Active”.
`CCn1c2ccccc2c2cc(Nc3ccnc(Nc4ccc5c(cnn5C)c4)n3)ccc21` was tested, and the Activity (Mus musculus [1]) was “Active” and the Activity (Mus musculus [2]) was “Active”.
For `Cc1nc2cc(Nc3ccnc(Nc4ccc(F)c(C)c4)n3)ccc2s1`, the Activity (Mus musculus [1]) was “Active” and the Activity (Mus musculus [2]) was “Active”.
With `CN1C(=O)CN=C(c2ccccc2)c2cc(Cl)ccc21` the Activity (Mus musculus [3]) was “inactive”.
`Cc1nc2cc(Nc3ccnc(Nc4ccc5c(cnn5C)c4)n3)ccc2s1` was tested, and the Activity (Mus musculus [1]) was “Active” and the Activity (Mus musculus [2]) was “Active”.
For `CCn1c2ccccc2c2cc(Nc3ccnc(Nc4ccc(N5CCCCC5)cc4)n3)ccc21`, the Activity (Mus musculus [1]) was “Active” and the Activity (Mus musculus [2]) was “Active”.
In the case of `CCn1c2ccccc2c2cc(Nc3ccnc(Nc4ccc(C(C)C)cc4)n3)ccc21`, the Activity (Mus musculus [1]) is reported as “Active” and the Activity (Mus musculus [2]) is reported as “Active”.
`CCn1c2ccccc2c2cc(Nc3ccnc(Nc4cnn(C)c4)n3)ccc21` was tested, and the Activity (Mus musculus [1]) was “Active” and the Activity (Mus musculus [2]) was “Active”.
For `Cc1cc2c(F)c(Nc3nccc(Nc4ccc5sc(C)nc5c4)n3)ccc2[nH]1`, the Activity (Mus musculus [1]) was “Active” and the Activity (Mus musculus [2]) was “Active”.
With `CCn1c2ccccc2c2cc(Nc3ccnc(Nc4ccc(CC(C)C)cc4)n3)ccc21` the Activity (Mus musculus [1]) was “Active” and the Activity (Mus musculus [2]) was “Active”.
With `CCn1c2ccccc2c2cc(Nc3nccc(Nc4ccc5sc(C)nc5c4)n3)ccc21` the Activity (Mus musculus [1]) was “Active” and the Activity (Mus musculus [2]) was “Active”.
`CCn1c2ccccc2c2cc(Nc3ccnc(Nc4ccc5nc(C)[nH]c5c4)n3)ccc21` was tested, and the Activity (Mus musculus [1]) was “Active” and the Activity (Mus musculus [2]) was “Active”.
`CCn1c2ccccc2c2cc(Nc3ccnc(Nc4cc(C)cc(F)c4)n3)ccc21` was tested, and the Activity (Mus musculus [1]) was “Active” and the Activity (Mus musculus [2]) was “Active”.
In the case of `CCn1c2ccccc2c2cc(Nc3ccnc(Nc4ccc(C)cc4)n3)ccc21`, the Activity (Mus musculus [1]) is reported as “Active” and the Activity (Mus musculus [2]) is reported as “Active”.
`CCn1c2ccccc2c2cc(Nc3ccnc(Nc4ccc(F)c(C)c4)n3)ccc21` was tested, and the Activity (Mus musculus [1]) was “Active” and the Activity (Mus musculus [2]) was “Active”.
With `Cc1nc2ccc(Nc3nccc(Nc4ccc5sc(C)nc5c4)n3)cc2[nH]1` the Activity (Mus musculus [1]) was “Active” and the Activity (Mus musculus [2]) was “Active”.
`COC(=O)c1ccc(Nc2nccc(Nc3ccc4sc(C)nc4c3)n2)cc1OC` was tested, and the Activity (Mus musculus [1]) was “Active” and the Activity (Mus musculus [2]) was “inactive”.
`CCn1c2ccccc2c2cc(Nc3ccnc(Nc4cc(OC)cc(OC)c4)n3)ccc21` was tested, and the Activity (Mus musculus [1]) was “Active” and the Activity (Mus musculus [2]) was “Active”.

Source: ChEMBL document CHEMBL6121007, “Design, synthesis and evaluation of pyrimidine derivatives as sedative-hypnotic agents” (Eur J Med Chem, 2025)
